ChEMBL document CHEMBL4842378, “An Enantiodefined Conformationally Constrained Fatty Acid Mimetic and Potent Inhibitor of ToxT” (ACS Med Chem Lett, 2021)
Activity calls are given as the source filed them. The calls are words filed in the database; no cut-off is given here.

How the values were obtained:
[1] = target: T1, TCP pilus virulence regulatory protein (Vibrio cholerae serotype O1 (strain ATCC 39541 / Classical Ogawa 395 /O395)) (UniProt A5F384); assay: Inhibition of wild type ToxT in Vibrio cholerae El Tor strain C6706 at 500 nM measured after 3.5 hrs by beta-galactosidase assay relative to control
T1 sequence (whole entry): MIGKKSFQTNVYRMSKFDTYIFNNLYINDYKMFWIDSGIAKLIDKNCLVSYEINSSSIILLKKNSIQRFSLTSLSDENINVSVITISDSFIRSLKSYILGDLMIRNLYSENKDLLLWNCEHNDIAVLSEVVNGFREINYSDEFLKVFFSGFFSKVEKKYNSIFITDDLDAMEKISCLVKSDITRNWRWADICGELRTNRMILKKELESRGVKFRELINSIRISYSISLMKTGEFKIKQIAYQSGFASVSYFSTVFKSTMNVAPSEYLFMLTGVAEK

[2] = target: T1, TCP pilus virulence regulatory protein (Vibrio cholerae serotype O1 (strain ATCC 39541 / Classical Ogawa 395 /O395)); assay: Inhibition of ToxT in delattoxT tcpA-linked LacZ reporter gene harboring Vibrio cholerae at 500 nM measured after 3.5 hrs by beta-galactosidase assay relative to control
[3] = target: T1, TCP pilus virulence regulatory protein (Vibrio cholerae serotype O1 (strain ATCC 39541 / Classical Ogawa 395 /O395)); assay: Inhibition of ToxT in Vibrio cholerae at upto 5 uM measured after 3.5 hrs by beta-galactosidase assay relative to control; details: dose microM <=5, time 3.5 hrs

Question: Which inhibition [1] does the source give for `CCCC1=C2CCC[C@@]2(C)CC[C@@H]1CCC(=O)O` here?
Answer: Its inhibition is 60%.

Question: With `CCCCC1=C2CCC[C@]2(C)CC[C@H]1CCC(=O)O` as the compound, how does the inhibition [1] read?
Answer: Its inhibition is 50%.

Question: For `Cc1cccc2c1C(CCC(=O)O)CCC2` (racemic), which inhibition [2] is on record?
Answer: The inhibition was 80%.

Question: And the inhibition [1]?
Answer: The inhibition was 45%.

Question: With `CCCCC1=C2CCC[C@@]2(C)CC[C@@H]1CCC(=O)O` as the compound, how does the inhibition [1] read?
Answer: The inhibition was 80%.

Question: With `CCCC1=C2CCC[C@@]2(C)CC[C@@H]1CC/C=C/C(=O)O` as the compound, how does the inhibition [1] read?
Answer: Its inhibition is “Active”.

Question: Which inhibition [3] does the source give for `O=C(O)CCCN1C(=O)c2cccc3cccc(c23)C1=O` here?
Answer: The inhibition was 20%.

Question: Which inhibition [1] does the source give for `CCCCC1=C2CCC[C@@]2(C)CC[C@@H]1CC/C=C/C(=O)O` here?
Answer: Its inhibition is 25%.
